According to paper PMC11177969, “Comprehensive Analyses of the Effects of the Small-Molecule Inhibitor of the UHM Domain in the Splicing Factor U2AF1 in Leukemia Cells” (Research Square, 2024):
Where two headings read alike, the source gives them in different places.

Columns and labels:
[1] = system: K562-U2AF1^S34F; set-up: method as in PMID 33689684; settings: cited from earlier work
[2] = target: T1, U2AF1-UHM (Homo sapiens, UniProt Q01081); assay: HTRF assay, inhibition of binding between U2AF1-UHM and U2AF2-ULM
T1 construct: we screened the CCG fragment library from University of Michigan against the U2AF1-UHM domain using the Thermal Shift Assay (TSA)
T1 sequence (Q01081 65-147 limits assumed): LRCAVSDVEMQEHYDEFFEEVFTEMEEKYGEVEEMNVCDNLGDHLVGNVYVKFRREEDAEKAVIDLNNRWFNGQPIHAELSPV
Text: TSA data provided no information of the binding site in U2AF1-UHM. To identify the binding sites of both hits to U2AF1-UHM, we synthesized CCG211578 (named Hit1/SF1–8) and CCG210084 (named Hit2/9 in Fig.2C) and asked if they inhibited the binding between U2AF1-UHM and U2AF2-ULM using our previously developed HTRF assay.[42] […] The IC50 values of SF1–8 and Hit2 correlated with the ΔTm values observed in TSA. We have reported that the conserved Trp binding site in U2AF1-UHM dominated the binding affinity between U2AF2-ULM and U2AF1-UH.[42]

[3] = target: T2, PUF60-UHM (Homo sapiens, UniProt Q9UHX1); assay: HTRF assay; format: binding; settings: Fig. 2C
T2 sequence (Q9UHX1 462-549 limits assumed): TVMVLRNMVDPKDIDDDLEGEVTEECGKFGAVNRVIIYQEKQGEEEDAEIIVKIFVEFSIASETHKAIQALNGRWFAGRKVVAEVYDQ
Text: (§1) To determine the selectivity of SF1–8 against other homologous UHM domains, we measured the IC50 values of SF1–8 to RBM39-UHM, SPF45-UHM and PUF60-UHM using the HTRF assay.[42] […] In the chemical synthesis (Scheme S1), methylation on the pyrazole group in SF1–8 can occur at the N8 or N9 position (Fig.2C). Although the NMR spectra can be used to infer the methyl group position on the pyrazole, we determined the crystal structure of a SF1–8 precursor to clearly confirm the methyl group is at N9 in SF1–8 (Fig.2C). To further probe the interaction of SF1–8 with U2AF1-UHM, we synthesized SF1–8 analogs and developed the structure activity relationship (SAR) (Fig.2C). […] A longer alkyl group was tolerated at the N8 position but not at the N9 position. […] The crystal structure of a 7c precursor experimentally determined from SCXRD again confirmed the location of the propyl group (Fig. 2C).

[4] = target: T3, RBM39-UHM (Homo sapiens, UniProt Q14498); assay: HTRF assay; format: binding; settings: Fig. 2C; SD of 2 independent experiments in parentheses
T3 sequence (Q14498 445-508 limits assumed): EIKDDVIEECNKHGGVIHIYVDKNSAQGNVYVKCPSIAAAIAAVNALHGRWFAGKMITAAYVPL
Text: as §1

[5] = target: T4, SPF45-UHM (Homo sapiens, UniProt Q96I25); assay: HTRF assay; format: binding; settings: Fig. 2C; SD of 2 independent experiments in parentheses
T4 sequence (Q96I25 306-385 limits assumed): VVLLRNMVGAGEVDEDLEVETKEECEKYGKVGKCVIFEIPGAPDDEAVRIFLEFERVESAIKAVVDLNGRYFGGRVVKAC
Text: as §1

[6] = target: T1, U2AF1-UHM; assay: Thermal Shift Assay (TSA) fragment library screening; format: binding; settings: confirmatory screening in triplicate, read-out: ΔTm (melting temperature change) of U2AF1-UHM
Procedure: To develop a different targeting strategy, we assessed potential tractable binding sites in U2AF1 using computational analysis and determined that the UHM domain of U2AF1 was for identifying hits (Fig.S1).[42] To discover hits, we screened the CCG fragment library from University of Michigan against the U2AF1-UHM domain using the Thermal Shift Assay (TSA). An initial single concentration screening at 200 μM led to identify 149 compounds that gave positive shifts of the melting temperature (ΔTm) in U2AF1-UHM. These compounds were subject to a secondary confirmatory screening in triplicate at 200 μM.

[7] = system: K562-U2AF1^S34F; assay: Growth inhibition / cell viability (CellTiter-Glo); format: cell-based
Text: (§2) Previous studies that introduced U2AF1^S34F in lung epithelial (HBEC3kt)[43], leukemia (K562)[38],[44],[45], and iPSC[37] cell lines have validated the function of U2AF1^S34F in these engineered cell lines while mutation of Q157 is less studied. We therefore focused our study on U2AF1^S34F and examined the effects of SF1–8 on a panel of leukemia cell lines including K562, U937, HL60 with isogenic overexpression of U2AF1^wt or U2AF1^S34F, K562 with isogenic overexpression of SRSF2^wt or SRSF2^P95H, and K562 with Crispr/Cas9 edited SF3B1^wt or SF3B1^E700K (denoted as K562-U2AF1^wt, K562-U2AF1^S34F, U937-U2AF1^wt, U937-U2AF1^S34F, HL60-U2AF1^wt, HL60-U2AF1^S34F, K562-SRSF2^wt, K562-SRSF2^P95H, K562-SF3B1^wt, K562-SF3B1^E700K). […] The data obtained from the engineered leukemia cell lines prompted us to query the activity of SF1–8 in primary MDS cells.
(§3) Figure 3. Growth inhibition activities of SF1–8 in U2AF1, SF3B1, SRSF2 mutant, wild-type leukemia cell lines (A) Dose dependent growth inhibition of U2AF1^S34F, SF3B1^E700K, SRSF2^P95H mutant and isogenic wild-type cell lines by the treatment of SF1–8. (B) Titration of SF1–8 against K562-U2AF1^wt, K562-U2AF1^S34F, MV4–11, HL60 cells using the CellTiter-Glo assay. (C) Toxicity of SF1–8 in human primary MDS cells (U2AF1^S34F) and healthy bone marrow cells.

[8] = system: K562-U2AF1^wt; assay: Growth inhibition / cell viability (CellTiter-Glo); format: cell-based
Text: as §2, §3

[9] = system: HL-60; assay: Growth inhibition titration (CellTiter-Glo); format: cell-based; settings: Homo sapiens, native cell line carrying U2AF1^wt
Text: as §2, §3

[10] = system: MV-4–11; assay: Growth inhibition titration (CellTiter-Glo); format: cell-based; settings: Homo sapiens, MV4-11; native cell line carrying U2AF1^wt
Text: as §2, §3

[11] = system: HL60-U2AF1^S34F; assay: Dose dependent growth inhibition; format: cell-based; settings: Fig. 3A
Text: as §2, §3

[12] = system: HL60-U2AF1^wt; assay: Dose dependent growth inhibition; format: cell-based; settings: Fig. 3A
Text: as §2, §3

[13] = system: K562-SF3B1^E700K; assay: Dose dependent growth inhibition; format: cell-based; settings: Fig. 3A
Text: as §2, §3

[14] = system: K562-SF3B1^wt; assay: Dose dependent growth inhibition; format: cell-based; settings: Fig. 3A
Text: as §2, §3

[15] = system: K562-SRSF2^P95H; assay: Dose dependent growth inhibition; format: cell-based; settings: Fig. 3A
Text: as §2, §3

[16] = system: K562-SRSF2^wt; assay: Dose dependent growth inhibition; format: cell-based; settings: Fig. 3A
Text: as §2, §3

[17] = system: U937-U2AF1^S34F; assay: Dose dependent growth inhibition; format: cell-based; settings: Fig. 3A
Text: as §2, §3

[18] = system: U937-U2AF1^wt; assay: Dose dependent growth inhibition; format: cell-based; settings: Fig. 3A
Text: as §2, §3

[19] = system: bone marrow cells from an MDS specimen that harbored U2AF1^S34F; assay: Toxicity in primary MDS cells; format: cell-based; settings: Homo sapiens, Bone marrow cell, U2AF1^S34F VAF 41%, read-out: viable cells
Text: as §2, §3

[20] = system: healthy control cells; assay: Toxicity in healthy control cells; format: cell-based, human; settings: as much as 10 μM
Text: as §2, §3

[21] = system: bone marrow cells of healthy control; assay: Colony formation assay; format: cell-based, human; settings: 1 to 20 μM
Text: as §2

[22] = system: K562-U2AF1^S34F cells; assay: Western blots of select genes; format: cell-based; settings: western blot
Text: To understand the underlying mechanisms of the differential effects of SF1–8 on K562-U2AF1^S34F, we performed an RNA-seq experiment on K562-U2AF1^S34F cells treated with SF1–8 and control (Fig.4). […] When the 99 genes were mapped to KEGG pathways, the top six enriched pathways were protein digestion and absorption, extracellular matrix-receptor interaction, focal adhesion, PI3K-Akt signaling pathway, human papillomavirus infection, and AGE-RAGE signaling pathway (Fig.S2). To determine if the protein levels of these genes were affected by their mRNA changes, we performed the western blots of select genes. […] Because of the role U2AF1 in RNA splicing, we asked if analysis of the isoform pattern changes may provide insight to explain the different observations between RNA-seq and western blot data. In the transcript analysis, we identified low FPKM numbers of three BCL2 transcripts (Fig.S3) that explained the relatively low BCL2 protein levels in K562. A significant increase of the BCL-2b transcript was also found. […] Besides BCL2, BCLXL (encoded by BCL2L1) and MCL1 have isoforms (BCL-XS and MCL-1S) that had apoptotic functions. K562 cells expressed only the anti-apoptotic MCL1 transcript and the expression was not affected by SF1–8 (not shown). […] Another frequently studied gene involved in apoptosis regulation is survivin.[48],[49]
Figure 4. RNA-seq experiment of K562-U2AF1^S34F cells treated with SF1–8 and the western blot of select genes. […] (C) Western blots of c-CBL, ATF3, and BCL-2 in K562-U2AF1^wt, K562-U2AF1^S34F treated with SF1–8. (D) Heatmap of top 99 differentially regulated genes in K562-U2AF1^S34F treated with SF1–8.

[23] = Fig. 2C, SD of 2 independent experiments in parentheses, read-out: IC50 U2AF1
[24] = representative titration curves, Fig. 2B, read-out: IC50 against U2AF1-UHM

## CC1(C)C2CCC(CN=C(N)CSS(=O)(=O)O)C1C2 (stereo not shown) [NSC194308]
[1]
  fold lower IC50 value in K562-U2AF^S34F than in K562-U2AF1^wt: 2–3 fold
  selectivity between K562-U2AF1^S34F and K562-U2AF1^wt: 2 fold

## CC(C)n1nc(O)cc1C1(C)CCNCC1 [8d]
[2]; [23]
  IC50: 71.6 µM
[3]
  IC50: 459 µM
[4]
  IC50: 395 µM
[5]
  IC50: 354 µM

## Cn1nc(O)cc1C1(C)CCNCC1 [8a]
[3]
  IC50: 550 µM
[4]
  IC50: > 1000 µM
[5]
  IC50: 473 µM

## CCn1nc(C2(C)CCNCC2)cc1O [7b]
[2]; [23]
  IC50: 467 µM
[3]
  IC50: 910 µM
[4]
  IC50: > 1000 µM
[5]
  IC50: 958 µM

## CCn1nc(O)cc1C1(C)CCNCC1 [8b]
[2]; [23]
  IC50: 232 µM
[3]
  IC50: > 1000 µM
[4]
  IC50: > 1000 µM
[5]
  IC50: 799 µM

## CCC1(c2cc(O)nn2C)CCNCC1 [8e]
[2]; [23]
  IC50: 46.5 µM
[3]
  IC50: 592 µM
[4]
  IC50: 335 µM
[5]
  IC50: 179 µM

## CC1(c2cc(O)[nH]n2)CCNCC1 [compound 9]
[6]
  ΔTm at 200 µM: 1.5 °C
[2]; [23]
  IC50: 343 ± 62.4 µM
[2]; [24]
  IC50: 328 µM
[3]
  IC50: 992 µM
[4]
  IC50: 686 µM
[5]
  IC50: > 1000 µM

## Cn1nc(C2(C)CCNCC2)cc1O [SF1–8]
[6]
  ΔTm at 200 µM: 2.02 °C
[2]; [23]
  IC50: 59.33 ± 0.02 µM
[2]; U2AF1-UHM vs RBM39-UHM, SPF45-UHM, PUF60-UHM
  selectivity against three other UHM domains: 4–12 fold
[2]; [24]
  IC50: 59.3 µM
[3]
  IC50: 523 µM
[4]
  IC50: 221 µM
[5]
  IC50: 748 µM
[7]; Fig. 3A
  effect on cell viability: selectively decreased the viability
[7]; dose titration, CellTiter-Glo
  IC50: 1.98 µM
[8]; Fig. 3A
  effect on cell viability: but not their isogenic wild-type cells
[8]; dose titration, CellTiter-Glo
  activity in dose titration: no activity
[9]
  IC50: > 100 µM
[10]
  IC50: > 100 µM
[11]
  effect on cell viability: reduced cell viability
[12]
  effect on cell viability: reduced cell viability
[13]
  effect on cell viability: selectively decreased the viability
[14]
  effect on cell viability: but not their isogenic wild-type cells
[15]
  effect on cell viability: no activity
[16]
  effect on cell viability: no activity
[17]
  effect on cell viability: no activity
[18]
  effect on cell viability: no activity
[19]
  viability at 10 µM: 20%
[20]
  effect on viable cells: did not significantly decrease 20% of viable cells
[21]
  toxicity in colony formation assay: no significant toxicity
[22]
  ATF-3 protein level: increase of ATF-3 was confirmed
  BCL2 protein level: decreased BCL2
  c-CBL protein level: no change of c-CBL

## CCCn1nc(C2(C)CCNCC2)cc1O [7c]
[2]; [23]
  IC50: 53.1 µM
[3]
  IC50: 541 µM
[4]
  IC50: 310 µM
[5]
  IC50: 62.4 µM

## CC(C)n1nc(C2(C)CCNCC2)cc1O [7d]
[2]; [23]
  IC50: 863 µM
[3]
  IC50: 1090 µM
[4]
  IC50: 791 µM
[5]
  IC50: 694 µM

## CCC1(c2cc(O)n(C)n2)CCNCC1 [7e]
[2]; [23]
  IC50: 383 µM
[3]
  IC50: > 1000 µM
[4]
  IC50: > 1000 µM
[5]
  IC50: 519 µM

## CCCn1nc(O)cc1C1(C)CCNCC1 [8c]
[2]; [23]
  IC50: 34.1 µM
[3]
  IC50: 621 µM
[4]
  IC50: 386 µM
[5]
  IC50: 362 µM
